Bounds are passed on as bounds.

We go through 20 molecules from ChEMBL document CHEMBL1149389 (Bioorg Med Chem Lett, 2006).

Data set [1] addresses D(2) dopamine receptor (Homo sapiens, UniProt P14416). Briefly: Binding affinity to human cloned dopamine D2 receptor.
Data set [2] deals with D(3) dopamine receptor (Homo sapiens, UniProt P35462). The data set is described as follows: Binding affinity to human cloned dopamine D3 receptor.
Data set [3] relates to Rattus norvegicus. Briefly: Antagonism of agonist-induced huddling deficits in orally administered rat. It counts as functional. The following applies: po.
Data set [4] has as its system Liver microsomes. The data set is described as follows: Metabolic stability in human liver microsomes. It counts as ADME, Microsome. On the technique in general: Liver microsomes are vesicles of endoplasmic reticulum, rich in cytochrome P450 enzymes.
For data set [5], the system named is Liver microsomes. Briefly: Metabolic stability in rat liver microsomes. It counts as ADME, Microsome.
Data set [6] is described as follows: Permeability across Caco-2 cell membrane. It counts as ADME, cell-based. The settings on record: human. On the technique in general: Caco-2 monolayers are a common model of the intestinal barrier.

Chain of D(2) dopamine receptor (P14416 whole entry): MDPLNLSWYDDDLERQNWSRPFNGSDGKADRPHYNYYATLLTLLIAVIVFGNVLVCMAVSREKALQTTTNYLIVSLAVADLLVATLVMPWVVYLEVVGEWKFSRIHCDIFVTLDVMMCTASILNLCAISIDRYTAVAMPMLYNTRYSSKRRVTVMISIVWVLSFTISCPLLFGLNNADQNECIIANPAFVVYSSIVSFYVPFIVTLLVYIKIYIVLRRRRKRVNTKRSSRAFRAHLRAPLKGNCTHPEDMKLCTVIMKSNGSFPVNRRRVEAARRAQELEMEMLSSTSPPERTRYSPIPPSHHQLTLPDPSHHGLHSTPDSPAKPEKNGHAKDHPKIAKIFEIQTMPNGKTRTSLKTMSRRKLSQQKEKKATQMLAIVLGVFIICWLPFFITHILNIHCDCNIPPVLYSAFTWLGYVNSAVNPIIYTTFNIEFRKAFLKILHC
Chain of D(3) dopamine receptor (P35462 whole entry): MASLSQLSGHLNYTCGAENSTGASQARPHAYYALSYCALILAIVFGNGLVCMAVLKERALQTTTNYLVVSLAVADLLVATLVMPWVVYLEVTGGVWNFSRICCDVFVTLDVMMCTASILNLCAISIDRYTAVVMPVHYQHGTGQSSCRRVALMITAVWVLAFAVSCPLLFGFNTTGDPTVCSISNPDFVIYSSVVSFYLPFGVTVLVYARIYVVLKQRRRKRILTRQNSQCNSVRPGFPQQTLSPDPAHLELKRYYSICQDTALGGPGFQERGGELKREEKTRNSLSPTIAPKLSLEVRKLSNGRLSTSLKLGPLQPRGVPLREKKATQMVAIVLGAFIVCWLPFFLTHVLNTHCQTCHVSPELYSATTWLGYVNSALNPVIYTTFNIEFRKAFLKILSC

Broadly, the Ki is the equilibrium dissociation constant of an inhibitor or competing ligand from its target. Read a high Ki as lower affinity. As to `CC(C)(C)c1nc(N2CCN(CCCCn3ccc(N4CCC4)nc3=O)CC2)cc(C(F)(F)F)n1`, the Ki in data set [1] stood at 82.1 nM; in data set [2], 4.4 nM.

With `CC(C)(C)c1nc(N2CCN(CCCCn3ccc(C4CCCCC4)nc3=O)CC2)cc(C(F)(F)F)n1`, the affinity in data set [1] corresponds to a Ki of 302 nM. This lies in the sub-micromolar range.

On to `Cn1c(=O)ccn(CCCCN2CCN(c3cc(C(F)(F)F)nc(C(C)(C)C)n3)CC2)c1=O`, for which the Ki was 610 nM in data set [1] and 11.8 nM in data set [2].

In turn, `CC(C)(C)c1nc(N2CCN(CCCCn3ccc(-c4ccccc4)nc3=O)CC2)cc(C(F)(F)F)n1` gave a Ki in data set [1] of 168 nM.

As usually defined, the ED50 is the dose that gives a 50% effect, or the effect in half of the subjects. A higher ED50 goes with a need for a large dose. In general, Papp refers to the rate of passage across a membrane or cell layer, normalised by area and donor concentration. In data set [3], `Cc1cn(CCCCN2CCN(c3cc(C(F)(F)F)nc(C(C)(C)C)n3)CC2)c(=O)[nH]c1=O` returned an ED50 of 6.1 mg/kg. Also, the Stability in data set [4] and in data set [5] was more than 97% in each case. For the same molecule, the Ki in data set [1] is 320 nM. The molecule further returned a Papp in data set [6] of 1.94 ×10⁻⁶ cm/s.

`CC(C)(C)c1nc(N2CCN(CCCCn3cc(Cl)c(=O)[nH]c3=O)CC2)cc(C(F)(F)F)n1`: in data set [1], the Ki came out at 220 nM.

In the case of `CC(C)(C)c1nc(N2CCN(CCCCn3ccc(N4CCCCC4)nc3=O)CC2)cc(C(F)(F)F)n1`, the Ki in data set [1] worked out at 89.4 nM; in data set [2] it was 3.4 nM.

With `CC(C)(C)c1nc(N2CCN(CCCCn3cc(C#N)c(=O)[nH]c3=O)CC2)cc(C(F)(F)F)n1`, the affinity in data set [1] corresponds to a Ki of 473 nM.

In turn, `CCOc1ccn(CCCCN2CCN(c3cc(C(F)(F)F)nc(C(C)(C)C)n3)CC2)c(=O)n1` had a Ki in data set [1] of 290 nM.

Molecule `CC(C)(C)c1ccn(CCCCN2CCN(c3cc(C(F)(F)F)nc(C(C)(C)C)n3)CC2)c(=O)n1` displayed a Ki in data set [1] of 216 nM. This Ki and that of the molecule before are within 1.5-fold of each other.

Take `CC(C)(C)c1nc(N2CCN(CCCCn3ccc(C4CC4)nc3=O)CC2)cc(C(F)(F)F)n1`: the Ki was 155 nM in data set [1] and 3.7 nM in data set [2].

As to `Cc1ccn(CCCCN2CCN(c3cc(C(F)(F)F)nc(C(C)(C)C)n3)CC2)c(=O)n1`, the affinity in data set [1] corresponds to a Ki of 307 nM. This counts as sub-micromolar.

Consider `CC(C)(C)c1nc(N2CCN(CCCCn3ccc(C4CCC4)nc3=O)CC2)cc(C(F)(F)F)n1`, for which, in data set [1], the Ki came to 273 nM.

With `CCc1cn(CCCCN2CCN(c3cc(C(F)(F)F)nc(C(C)(C)C)n3)CC2)c(=O)[nH]c1=O`, the Ki was found to be 148 nM in data set [1] and 1.7 nM in data set [2].

In data set [1], `CC(C)(C)c1nc(N2CCN(CCCCn3cc(F)c(=O)[nH]c3=O)CC2)cc(C(F)(F)F)n1` yielded a Ki of 602 nM.

Take `CC(C)(C)c1nc(N2CCN(CCCCn3cccnc3=O)CC2)cc(C(F)(F)F)n1`: the Ki in data set [1] was 447 nM; in data set [2], 12.9 nM.

Turning to `CC(C)(C)c1nc(N2CCN(CCCCn3cc(C(F)(F)F)c(=O)[nH]c3=O)CC2)cc(C(F)(F)F)n1`, the inhibition constant (Ki) in data set [1] is 646 nM.

Take `CC(C)(C)c1nc(N2CCN(CCCCn3ccc(=O)[nH]c3=O)CC2)cc(C(F)(F)F)n1`: the Ki in data set [1] was determined as 196 nM.

Take `Cc1cn(CCCCN2CCN(c3cc(C(F)(F)F)nc(C(C)(C)C)n3)CC2)c(=O)n(C)c1=O`: the values for the Ki in data set [1] and in data set [2] were 356 nM and 10.4 nM, respectively.

Consider `CC(C)(C)c1nc(N2CCN(CCCSc3nccc(O)n3)CC2)cc(C(F)(F)F)n1` [ABT-925], for which, in data set [1], the Ki came out at 351 nM. This lies in the sub-micromolar range.
